Source: PMC6100113, “Involvement of CYP4F2 in the Metabolism of a Novel Monophosphate Ester Prodrug of Gemcitabine and Its Interaction Potential In Vitro” (Molecules : A Journal of Synthetic Chemistry and Natural …, 2018)

Tests used:
[1] = molecular target: T1, CYP3A4 (Homo sapiens, UniProt P08684); assay: Reaction phenotyping with recombinant CYP3A4; format: in vitro ADME; conditions: recombinant CYP3A4 50 nM, 1 μM, NADPH
T1 construct: purchased Corning Gentest
Experimental: Compound-3 was incubated separately with human cDNA-expressed cytochrome P450s (CYP1A2, CYP2B6, CYP2C8, CYP2C9, CYP2C19, CYP2D6, CYP3A4, CYP4A11, CYP4F2 and CYP4F3). The incubation mixtures contained individual CYP isoenzymes (50 nM), potassium phosphate buffer (100 mM, pH 7.4), NADPH (1 mM), and Compound-3 (1 µM). The final volume of the incubation mixture was 50 µL. Before the start of the incubation, reaction mixtures were warmed up at 37 °C for 10 min. The reaction was initiated with the addition of NADPH and the incubations were performed at 37 °C in a water bath. After 60 min of incubation, the reactions were terminated with an equal volume of ice-cold acetonitrile containing the internal standard. Control samples without NADPH but substrates were included. The samples were then centrifuged and aliquots of 10 μL of the supernatants were transferred onto LC-MS/MS for the analysis of Compound-3 and M4 (carboxylic acid) levels.

[2] = Metabolic stability in rat intestinal microsomes; format: in vitro ADME; conditions: rat intestinal microsomes 0.2 mg/mL, with NADPH, 1 μM, 37 °C
Experimental: Stability of Compound-3 was first investigated in microsomal systems from human and rat. The microsomal protein and Compound-3 concentrations were optimized to 0.2 mg/mL and 1 µM, respectively. Before the start of the incubation, reaction mixtures containing phosphate buffer (100 mM, pH 7.4), microsomes and Compound-3 in a total volume of 50 µL were warmed up at 37 °C for 10 min. The reaction was started with the addition of NADPH at a final concentration of 1 mM. Incubations were terminated at a specified time with the addition of 100 µL ice-cold acetonitrile containing the internal standard. The samples were then centrifuged, and aliquots of 10 µL of the supernatants were transferred into liquid chromatography-tandem mass spectrometry (LC-MS/MS) for the analysis of Compound-3 levels.

[3] = Metabolite identification by UPLC/Triple TOF MS in human intestinal microsomes; format: in vitro ADME; set-up: key: √: metabolites were detected by high-resolution mass spectrometry; conditions: Compound-3 10 μM, NADPH, 60 min, HRMS
Experimental: (§1) For metabolite identification, a higher concentration of Compound-3 (10 μM) was incubated with liver microsomes (1 mg/mL) in the presence of NADPH (1 mM) and primary human hepatocytes at a density of 1 × 10^6 cell/mL. Samples were collected at 0 min and 60 min with the addition of ice-cold acetonitrile. After vortexing and centrifugation, the supernatant was transferred into a new tube and evaporated to dryness. The samples were then reconstituted in 100 μL of water and methanol (v/v, 9:1). An aliquot of 10 μL of reconstituted solution was injected into UPLC/Triple TOF 5600^+ MS for metabolite identification.
(§2) Identification of Compound-3 metabolites was carried out using Acquity UPLC/Triple TOF 5600^+ system. Chromatographic separation for Compound-3 and its metabolites were achieved by an Acquity UPLC HSS T3 column (100 × 2.1 mm i.d., […]; Waters Corp.) maintained at 40 °C. The mobile phase was a mixture of 0.02% formic acid in 5 mM ammonium acetate (A) and methanol (B). The gradient elution was started from 2% B and maintained for 4 min, then increased linearly to 75% B over the next 4 min and maintained for 8 min. […] The flow rate was 0.4 mL/min and the eluent was monitored by UV detection at 280 nm.
(§3) For mass detection, a Triple TOF 5600^+ mass spectrometer (AB Sciex, Framingham, MA, USA) was operated in positive ion electrospray (ES-positive) mode with the source temperature at 500 °C and scan range from m/z 100 to 1000 Da. Other parameters were set as follows: ion spray voltage, 5500 V; decluttering potential, 80 V; curtain gas, 40 psi; ion source gas 1, 55 psi; and ion source gas 2, 50 psi. Collision energies of 25 and 65 eV were used for TOF MS and product ion scans, respectively, and a collision energy spread of 20 was used in the MS/MS analysis. Information-dependent acquisition (IDA), together with real-time multiple mass defect filter, was used to trigger acquisition of MS/MS spectra.

[4] = system: tumor; conditions: in vitro and in vivo testing in the preclinical setting; cited from earlier work
[5] = Metabolite identification by UPLC/Triple TOF MS in human liver microsomes; format: in vitro ADME; set-up: key: √: metabolites were detected by high-resolution mass spectrometry; conditions: Compound-3 10 μM, 1 mg/mL microsomes, NADPH, 60 min, HRMS
Experimental: as §1, §2, §3

[6] = molecular target: T2, CYP4F2 (Homo sapiens, UniProt P78329); assay: CYP4F2-mediated drug interaction (inhibition of CYP4F2); format: in vitro ADME; conditions: substrate pafuramidine 1.5 μM, CYP4F2 10 nM, 5 min, DB775 formation; read-out: IC50, inhibition of CYP4F2 mediated metabolism of pafuramidine
T2 construct: purchased Corning Gentest
T2 sequence (P78329 5-520): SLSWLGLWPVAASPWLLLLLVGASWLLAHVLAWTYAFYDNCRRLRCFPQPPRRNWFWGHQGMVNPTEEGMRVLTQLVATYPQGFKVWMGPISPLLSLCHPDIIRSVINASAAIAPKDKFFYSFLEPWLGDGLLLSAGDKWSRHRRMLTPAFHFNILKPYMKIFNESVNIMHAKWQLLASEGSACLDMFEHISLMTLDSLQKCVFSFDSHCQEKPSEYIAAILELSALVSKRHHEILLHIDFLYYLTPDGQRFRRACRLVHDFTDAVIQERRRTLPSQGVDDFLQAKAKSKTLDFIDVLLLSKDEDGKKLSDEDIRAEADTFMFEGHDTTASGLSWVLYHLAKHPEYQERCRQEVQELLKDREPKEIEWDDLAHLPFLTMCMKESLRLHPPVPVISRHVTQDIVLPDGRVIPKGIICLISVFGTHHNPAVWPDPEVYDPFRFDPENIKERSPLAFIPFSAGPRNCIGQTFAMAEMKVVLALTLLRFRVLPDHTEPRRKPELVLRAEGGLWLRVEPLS
Experimental: CYP4F2-mediated drug interactions were examined in two separate setting: pafuramidine as the substrate and Compound-3 as the inhibitor; and Compound-3 as the substrate and pafuramidine as the inhibitor. The reaction system contained 10 nM CYP4F2, 100 mM phosphate buffer (pH 7.4), 1 mM NADPH, and substrate (pafuramidine 1.5 μM or Compound-3 1 μM). Inhibitor (Compound-3 or pafuramidine) concentrations ranged from 0 to 10,000 nM. The incubation time was 5 min for pafuramidine and 10 min for Compound-3. Incubation temperature was 37 °C. LC-MS/MS analysis was performed as described above for the levels of DB775 or M4 (carboxylic acid metabolite of Compound-3).

T1 sequence (P08684 whole entry): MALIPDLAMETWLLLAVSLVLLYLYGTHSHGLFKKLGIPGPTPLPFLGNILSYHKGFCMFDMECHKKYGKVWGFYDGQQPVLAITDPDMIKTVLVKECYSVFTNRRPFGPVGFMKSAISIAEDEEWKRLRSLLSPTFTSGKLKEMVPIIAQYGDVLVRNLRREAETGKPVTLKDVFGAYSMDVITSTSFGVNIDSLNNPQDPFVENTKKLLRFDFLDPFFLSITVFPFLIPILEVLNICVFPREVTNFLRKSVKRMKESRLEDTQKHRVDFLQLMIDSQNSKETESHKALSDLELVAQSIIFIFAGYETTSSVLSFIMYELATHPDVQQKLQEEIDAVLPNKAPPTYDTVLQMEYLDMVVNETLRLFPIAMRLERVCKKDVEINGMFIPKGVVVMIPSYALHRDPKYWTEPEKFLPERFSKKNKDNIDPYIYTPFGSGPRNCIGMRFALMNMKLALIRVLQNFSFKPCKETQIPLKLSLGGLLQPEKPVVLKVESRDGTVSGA

CCCCCCCCCCCCCCCCCCOCCOP(=O)(O)OCC1OC(n2ccc(N)nc2=O)C(F)(F)C1O (stereo not drawn) [Compound-3]
metabolism of Compound-3 by CYP isozyme [1]: moderate metabolic activity | disappearance in 60 min [2]: ~ 20% | detected in matrix HIM [3]: √ | antitumor activity as compared to gemcitabine itself and LY2334737 [4]: enhanced antitumor activity | detected in matrix HLM [5]: √ | IC50 [6]: 100 nM
